Here are results for four substances from publication PMC12302718, “Molecular basis for Gβγ-SNARE-mediated inhibition of synaptic vesicle fusion” (The Journal of Biological Chemistry, 2025).

One experiment deals with SNAP25. The conditions noted are these: read-out: Potency in competing with full-length Gβ1γ2 for binding to SNAP25; peptide competition studies; cited from earlier work. An excerpt: The importance of the N-terminal binding site is supported by the findings presented here as well as by previous findings, both in cell-based assays and in vitro binding studies ([10], [39]).

Experiment [1] concerns the target fully zipped ternary SNARE mimetic. The experiment can be described thus: Microscale Thermophoresis (MST) affinity analysis, fully zipped SNARE. The arrangement: species or system rat. As to conditions: 250 nM fluorescently labeled (Red-Tris-NTA) Gβ1γ2, SNARE 0.56 nM−19.5 μM, n = 3 technical replicates, read-out: KD, binding to fully zipped SNARE.
The test system of experiment [2] is partially zipped and fully zipped ternary SNARE mimetics; tSNARE. Kind of experiment: Peptide array / far-Western blot with ternary SNARE mimetics and tSNARE. The format is binding, rat. As to conditions: 0.5 μM SNARE protein, far-Western probed for SNAP25. An excerpt:
Binding was quantified as a fraction of the densitometric signal of a positive control peptide corresponding to residues 48 to 62 of rat complexin-1, which interacts with the ternary SNARE complex in co-crystal structures ([41], [51], [52]).
Quantification of (A) Gβ1 and (B) Gγ2 peptides binding to the partially zipped (black striped bars) and fully zipped SNARE (gray bars). Densitometry measurements were normalized to a positive control peptide spot corresponding to a portion of the rat complexin-1 central helix (residues 48–62). Bar graphs represent the mean ± SD of three technical replicates. A, both SNARE mimetics interact with the N-terminal α-helix (H1, red), L1 (orange), B1 (yellow), and B2 (green) of Gβ1. […]
Peptide array synthesis was performed using the ResPep SL peptide synthesizer (Intavis AG) according to standard SPOT synthesis protocols ([44], [70]). […] Spots were detected using HRP-conjugated secondary antibodies as described by the manufacturer. For densitometric analysis comparing Gβ and Gγ isoforms, the signal in individual dots was quantified as a percentage of total density detected on the membrane (Quantity One and Image Lab, Bio Rad, and Image J [Schneider et al., 2012]). […] Quantification of Gβ1 and Gγ2 peptide spots binding to ternary SNARE mimetics was performed by normalizing within each blot to a positive control corresponding to residues 48 to 62 of complexin-1. […]

The target in a further experiment is T1, Gβ1γ2/SNAP25 interaction (Homo sapiens, UniProt P60880).
T1 construct: made in house
T1 sequence (P60880 whole entry): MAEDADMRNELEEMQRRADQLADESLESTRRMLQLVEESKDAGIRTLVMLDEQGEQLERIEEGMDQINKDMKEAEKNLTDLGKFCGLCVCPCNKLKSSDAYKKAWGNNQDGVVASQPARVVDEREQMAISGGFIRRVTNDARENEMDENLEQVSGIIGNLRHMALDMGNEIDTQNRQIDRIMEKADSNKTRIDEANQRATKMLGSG
Kind of experiment: Alphascreen competition-binding assay (peptides vs full-length Gβ1γ2/SNAP25). As to conditions: read-out: IC50, competition of SNAP25 C-terminal peptide with full-length SNAP25 for binding to Gβ1γ2, 95% CI: 1.27–2.70 μM, n = 21 technical replicates. An excerpt: Proximity of Alphascreen beads due to Gβ1γ2/SNAP25 interactions produces a luminescent signal. […] A value of 100% was assigned to the average of all conditions tested containing only DMSO as a positive control. The data points correspond to the mean ± SD percentage of positive control luminescence (n = 3 technical replicates). Data were fitted with a four-parameter non-linear regression model in GraphPad Prism to obtain IC50 values for each peptide (Table 1).
Alphascreen luminescence measurements were performed as described ([33]). […] An EC80 concentration of 180 nM purified His6-Gβ1γ2 was made in assay buffer. Peptide stocks in DMSO were spotted onto 384-well white OptiPlates (PerkinElmer Life Sciences) at concentration ranges of 1 nM to 100 μM using a Labcyte Echo 555 Omics acoustic liquid handler (Labcyte), with DMSO being back-added to a final concentration of 0.1%. […] Subsequent to incubation while shaking for an additional 5 min, 10 μl of Alphascreen Histidine Detection Kit (nickel chelate) acceptor beads were added to a final concentration of 20 μg/ml in assay buffer. […] After being spun down briefly to settle all fluid at the bottom of the well, plates were incubated for an additional 1 h at 27 °C before being read in the EnSpire. […] IC50 concentrations for each peptide were determined by sigmoidal dose-response curve-fitting with variable slope.

Where no end group is shown, it is not given here. A value given as a limit tells only on which side of the number the result lay.

On to “Gβ1 residues 328 to 337: peptide corresponding to Gβ1 residues 328 to 337, from ref 39 (ATGSWDSFLK; UniProt P62873 328-337, looked up, fragment)”, for which the IC50 in the experiment on SNAP25 was about 28 µM. “Gβ1γ2: His-tagged soluble Gβ1γ2 (C68S) heterodimer purified from Sf9 cells”: the Kd in experiment [1] is over 13 µM. Consider “Gγ2 peptide 19: 15-mer Gγ2 array peptide number 19, membrane-coupled (PASENPFREKKFFCA; also: C-terminus coupled to the membrane)”, for which the “Binding pattern, tSNARE versus ternary SNARE mimetics” value in experiment [2] is on record as “bound to tSNARE but not ternary SNARE”. With TRIDEANQRATKMLGSG, the IC50 on Gβ1γ2/SNAP25 interaction came out at 1.84 µM.
